Measured values reported in patent publication US12138256B2, “Treatment of cardiopulmonary disorders” (Bayer Aktiengesellschaft, priority 2021, dated 2024).

Test system: sGC (cGMP)
Experiment: Phase I, healthy male subjects, 7 days once daily inhalation: cGMP in blood samples (C-4.1)
Assay type: in vivo, human
Method: Healthy White male subjects, aged 18 to 45 years and with a body mass index (BMI) above/equal 18.5 and below/equal 29.9 kg/m2 were treated in a clinical pharmacological phase I study on seven days with inhaled once daily doses of 480 μg or 1000 μg or 2000 μg (2 capsules of 1000 μg) (nominal dose) of dry powder formulations of example 2 or Placebo. The subjects inhaled the drug powder from capsules (see under D-1, e.g. tables 22 and 23) inserted into a handheld inhalation device by one deep inhalative breath. The dry powder formulation of the drug is dispersed into the airstream and fine particles are transported into the deep parts of the lung where it is intended to cause a vasodilation of the blood vessels in PH patients for a substantial reduction of increased blood pressure in the central pulmonary blood vessels in PAH patients or other subtypes of PH. This effect cannot be shown in subjects with healthy lungs. In addition inhaled drug causes a dilation of the bronchial airways and thus also improves disease states of lung diseases in PH patients with pathological bronchoconstriction. This effect was measured via bodyplethysmography as reduction of Specific Airway Resistance in healthy subjects. After the deep inhalative breath the subjects hold breath for 2 seconds, so that the dry powder drug condenses from the airstream onto the surface of the deeper lung areas where it is deposited close to its site of intended pharmacological action. The drug dissolutes over the day and equilibrates the lung via lining fluid.
Drug activity in healthy men was controlled in the healthy subjects by analysing blood samples for cGMP, the immediate product of sGC pharmacological activation prior after the first and after the last drug inhalation of the 7 days treatment in comparison to measurements on the pretreatment day for all doses.
This prolonged activity in comparison to systemic drug concentration is caused by the mode of administration as inhaled dry powder, that deposits drug in the deeper part of the lung leading to an active drug concentration over 24 h after a once daily inhalation.
At 10 days after the first treatment, mean cGMP concentrations had returned close to the concentration observed at the pre-dosing day.

O=C(O)c1ccc(CCN(CCc2ccccc2OCc2ccc(-c3ccc(C(F)(F)F)cc3)cc2Cl)[C@H]2CCCc3nc(C(=O)O)ccc32)cc1 [example 2, (5S)-{[2-(4-Carboxyphenyl)ethyl][2-(2-{[3-chloro-4′-(trifluoromethyl)biphenyl-4-yl]methoxy}phenyl)-ethyl]amino}-5,6,7,8-tetrahydroquinoline-2-carboxylic acid]
cyclic guanosine monophosphate changes from baseline (480 μg once daily inhaled, 0 D 02 H 00 M): 1.73 ± 0.82 nmol/L | cyclic guanosine monophosphate changes from baseline (480 μg once daily inhaled, 0 D 04 H 00 M): 3.04 ± 1.39 nmol/L | cyclic guanosine monophosphate changes from baseline (480 μg once daily inhaled, 0 D 06 H 00 M): 3.33 ± 1.39 nmol/L | cyclic guanosine monophosphate changes from baseline (480 μg once daily inhaled, 0 D 08 H 00 M): 2.94 ± 1.38 nmol/L | cyclic guanosine monophosphate changes from baseline (480 μg once daily inhaled, 0 D 12 H 00 M): 2.10 ± 1.18 nmol/L | cyclic guanosine monophosphate changes from baseline (480 μg once daily inhaled, 0 D 15 H 00 M): 1.53 ± 1.50 nmol/L | cyclic guanosine monophosphate changes from baseline (480 μg once daily inhaled, 1 D 00 H 00 M): 0.84 ± 0.89 nmol/L | cyclic guanosine monophosphate changes from baseline (480 μg once daily inhaled, 2 D 00 H 00 M): 0.74 ± 1.59 nmol/L | cyclic guanosine monophosphate changes from baseline (480 μg once daily inhaled, 3 D 00 H 00 M): 1.00 ± 1.92 nmol/L | cyclic guanosine monophosphate changes from baseline (480 μg once daily inhaled, 4 D 00 H 00 M): 1.46 ± 1.24 nmol/L | cyclic guanosine monophosphate changes from baseline (480 μg once daily inhaled, 5 D 00 H 00 M): 1.50 ± 0.98 nmol/L | cyclic guanosine monophosphate changes from baseline (480 μg once daily inhaled, 6 D 00 H 00 M): 1.92 ± 1.21 nmol/L | cyclic guanosine monophosphate changes from baseline (480 μg once daily inhaled, 7 D 00 H 00 M): 1.68 ± 0.85 nmol/L | cyclic guanosine monophosphate changes from baseline (480 μg once daily inhaled, 7 D 02 H 00 M): 4.22 ± 2.29 nmol/L | cyclic guanosine monophosphate changes from baseline (480 μg once daily inhaled, 7 D 04 H 00 M): 5.39 ± 2.34 nmol/L | cyclic guanosine monophosphate changes from baseline (480 μg once daily inhaled, 7 D 06 H 00 M): 6.44 ± 2.26 nmol/L | cyclic guanosine monophosphate changes from baseline (480 μg once daily inhaled, 7 D 08 H 00 M): 5.19 ± 1.64 nmol/L | cyclic guanosine monophosphate changes from baseline (480 μg once daily inhaled, 7 D 12 H 00 M): 3.71 ± 1.79 nmol/L | cyclic guanosine monophosphate changes from baseline (480 μg once daily inhaled, 7 D 15 H 00 M): 3.04 ± 2.09 nmol/L | cyclic guanosine monophosphate changes from baseline (480 μg once daily inhaled, 8 D 00 H 00 M): 1.69 ± 2.65 nmol/L | cyclic guanosine monophosphate changes from baseline (480 μg once daily inhaled, 8 D 12 H 00 M): 0.69 ± 1.53 nmol/L | cyclic guanosine monophosphate changes from baseline (480 μg once daily inhaled, 9 D 00 H 00 M): 0.13 ± 1.97 nmol/L | cyclic guanosine monophosphate changes from baseline (480 μg once daily inhaled, 9 D 12 H 00 M): 1.10 ± 1.01 nmol/L | cyclic guanosine monophosphate changes from baseline (480 μg once daily inhaled, 10 D 00 H 00 M): -0.00 ± 0.64 nmol/L | cyclic guanosine monophosphate changes from baseline (480 μg, 0 D 00 H 00 M): 0.11 ± 1.10 nmol/L | cGMP, mean ± SD (480 μg, 0 D 00 H 00 M (baseline)): 5.51 ± 1.00 nmol/L | cGMP, mean ± SD (480 μg, 0 D 02 H 00 M): 7.24 ± 1.25 nmol/L | cGMP, mean ± SD (480 μg, 0 D 04 H 00 M): 8.56 ± 1.45 nmol/L | cGMP, mean ± SD (480 μg, 0 D 06 H 00 M): 8.84 ± 1.35 nmol/L | cGMP, mean ± SD (480 μg, 0 D 08 H 00 M): 8.46 ± 1.59 nmol/L | cGMP, mean ± SD (480 μg, 0 D 12 H 00 M): 7.61 ± 1.01 nmol/L | cGMP, mean ± SD (480 μg, 0 D 15 H 00 M): 7.04 ± 1.50 nmol/L | cGMP, mean ± SD (480 μg, 1 D 00 H 00 M): 6.36 ± 1.10 nmol/L | cGMP, mean ± SD (480 μg, 2 D 00 H 00 M): 6.26 ± 2.17 nmol/L | cGMP, mean ± SD (480 μg, 3 D 00 H 00 M (trough)): 6.51 ± 2.62 nmol/L | cGMP, mean ± SD (480 μg, 4 D 00 H 00 M (trough)): 6.97 ± 1.96 nmol/L | cGMP, mean ± SD (480 μg, 5 D 00 H 00 M (trough)): 7.01 ± 1.72 nmol/L | cGMP, mean ± SD (480 μg, 6 D 00 H 00 M (trough)): 7.43 ± 1.69 nmol/L | cGMP, mean ± SD (480 μg, 7 D 00 H 00 M (trough)): 7.19 ± 1.47 nmol/L | cGMP, mean ± SD (480 μg, 7 D 02 H 00 M): 9.73 ± 3.00 nmol/L | cGMP, mean ± SD (480 μg, 7 D 04 H 00 M): 10.90 ± 3.12 nmol/L | cGMP, mean ± SD (480 μg, 7 D 06 H 00 M): 11.96 ± 2.80 nmol/L | cGMP, mean ± SD (480 μg, 7 D 08 H 00 M): 10.70 ± 2.27 nmol/L | cGMP, mean ± SD (480 μg, 7 D 12 H 00 M): 9.22 ± 2.37 nmol/L | cGMP, mean ± SD (480 μg, 7 D 15 H 00 M): 8.56 ± 2.80 nmol/L | cGMP, mean ± SD (480 μg, 8 D 00 H 00 M): 7.20 ± 3.23 nmol/L | cGMP, mean ± SD (480 μg, 8 D 12 H 00 M): 6.20 ± 2.00 nmol/L | cGMP, mean ± SD (480 μg, 9 D 00 H 00 M): 5.64 ± 2.53 nmol/L | cGMP, mean ± SD (480 μg, 9 D 12 H 00 M): 6.61 ± 1.80 nmol/L | cGMP, mean ± SD (480 μg, 10 D 00 H 00 M): 5.51 ± 1.39 nmol/L | cGMP, mean ± SD (480 μg, −0 D 09 H 00 M (baseline)): 5.60 ± 1.08 nmol/L | cyclic guanosine monophosphate changes from baseline (480 μg, −0 D 09 H 00 M (pretreatment day)): 0.20 ± 1.59 nmol/L | cGMP, mean ± SD (480 μg, −0 D 12 H 00 M (baseline)): 5.62 ± 1.26 nmol/L | cyclic guanosine monophosphate changes from baseline (480 μg, −0 D 12 H 00 M (pretreatment day)): 0.22 ± 1.17 nmol/L | cGMP, mean ± SD (480 μg, −0 D 16 H 00 M (baseline)): 5.81 ± 1.09 nmol/L | cyclic guanosine monophosphate changes from baseline (480 μg, −0 D 16 H 00 M (pretreatment day)): 0.41 ± 0.96 nmol/L | cGMP, mean ± SD (480 μg, −0 D 18 H 00 M (baseline)): 5.61 ± 0.71 nmol/L | cyclic guanosine monophosphate changes from baseline (480 μg, −0 D 18 H 00 M (pretreatment day)): 0.21 ± 1.74 nmol/L | cGMP, mean ± SD (480 μg, −0 D 20 H 00 M (baseline)): 5.92 ± 0.83 nmol/L | cyclic guanosine monophosphate changes from baseline (480 μg, −0 D 20 H 00 M (pretreatment day)): 0.52 ± 0.95 nmol/L | cGMP, mean ± SD (480 μg, −0 D 22 H 00 M (baseline)): 6.57 ± 1.22 nmol/L | cyclic guanosine monophosphate changes from baseline (480 μg, −0 D 22 H 00 M (pretreatment day)): 1.17 ± 1.00 nmol/L | cGMP, mean ± SD (480 μg, −1 D 02 H 00 M (baseline)): 5.40 ± 1.41 nmol/L | cyclic guanosine monophosphate changes from baseline (1000 μg once daily inhaled, 0 D 02 H 00 M): 3.26 ± 2.04 nmol/L | cyclic guanosine monophosphate changes from baseline (1000 μg once daily inhaled, 0 D 04 H 00 M): 5.64 ± 2.54 nmol/L | cyclic guanosine monophosphate changes from baseline (1000 μg once daily inhaled, 0 D 06 H 00 M): 6.78 ± 2.79 nmol/L | cyclic guanosine monophosphate changes from baseline (1000 μg once daily inhaled, 0 D 08 H 00 M): 5.94 ± 2.65 nmol/L | cyclic guanosine monophosphate changes from baseline (1000 μg once daily inhaled, 0 D 12 H 00 M): 4.86 ± 2.91 nmol/L | cyclic guanosine monophosphate changes from baseline (1000 μg once daily inhaled, 0 D 15 H 00 M): 3.70 ± 2.59 nmol/L | cyclic guanosine monophosphate changes from baseline (1000 μg once daily inhaled, 1 D 00 H 00 M): 1.26 ± 1.98 nmol/L | cyclic guanosine monophosphate changes from baseline (1000 μg once daily inhaled, 2 D 00 H 00 M): 0.33 ± 1.99 nmol/L | cyclic guanosine monophosphate changes from baseline (1000 μg once daily inhaled, 3 D 00 H 00 M): 2.31 ± 2.68 nmol/L | cyclic guanosine monophosphate changes from baseline (1000 μg once daily inhaled, 4 D 00 H 00 M): 2.86 ± 2.63 nmol/L | cyclic guanosine monophosphate changes from baseline (1000 μg once daily inhaled, 5 D 00 H 00 M): 3.59 ± 2.51 nmol/L | cyclic guanosine monophosphate changes from baseline (1000 μg once daily inhaled, 6 D 00 H 00 M): 4.32 ± 2.82 nmol/L | cyclic guanosine monophosphate changes from baseline (1000 μg once daily inhaled, 7 D 00 H 00 M): 4.74 ± 2.98 nmol/L | cyclic guanosine monophosphate changes from baseline (1000 μg once daily inhaled, 7 D 02 H 00 M): 6.93 ± 2.99 nmol/L | cyclic guanosine monophosphate changes from baseline (1000 μg once daily inhaled, 7 D 04 H 00 M): 10.84 ± 2.91 nmol/L | cyclic guanosine monophosphate changes from baseline (1000 μg once daily inhaled, 7 D 06 H 00 M): 11.79 ± 3.70 nmol/L | cyclic guanosine monophosphate changes from baseline (1000 μg once daily inhaled, 7 D 08 H 00 M): 11.00 ± 4.58 nmol/L | cyclic guanosine monophosphate changes from baseline (1000 μg once daily inhaled, 7 D 12 H 00 M): 9.19 ± 5.26 nmol/L | cyclic guanosine monophosphate changes from baseline (1000 μg once daily inhaled, 7 D 15 H 00 M): 8.00 ± 4.41 nmol/L | cyclic guanosine monophosphate changes from baseline (1000 μg once daily inhaled, 8 D 00 H 00 M): 4.47 ± 3.81 nmol/L | cyclic guanosine monophosphate changes from baseline (1000 μg once daily inhaled, 8 D 12 H 00 M): 2.30 ± 3.05 nmol/L | cyclic guanosine monophosphate changes from baseline (1000 μg once daily inhaled, 9 D 00 H 00 M): 1.38 ± 2.59 nmol/L | cyclic guanosine monophosphate changes from baseline (1000 μg once daily inhaled, 9 D 12 H 00 M): 1.02 ± 2.24 nmol/L | cyclic guanosine monophosphate changes from baseline (1000 μg once daily inhaled, 10 D 00 H 00 M): 1.42 ± 2.87 nmol/L | cyclic guanosine monophosphate changes from baseline (1000 μg, 0 D 00 H 00 M): -0.11 ± 1.62 nmol/L | cGMP, mean ± SD (1000 μg, 0 D 00 H 00 M (baseline)): 4.91 ± 1.27 nmol/L | cGMP, mean ± SD (1000 μg, 0 D 02 H 00 M): 8.17 ± 1.07 nmol/L | cGMP, mean ± SD (1000 μg, 0 D 04 H 00 M): 10.56 ± 1.47 nmol/L | cGMP, mean ± SD (1000 μg, 0 D 06 H 00 M): 11.69 ± 1.86 nmol/L | cGMP, mean ± SD (1000 μg, 0 D 08 H 00 M): 10.86 ± 1.66 nmol/L | cGMP, mean ± SD (1000 μg, 0 D 12 H 00 M): 9.77 ± 2.11 nmol/L | cGMP, mean ± SD (1000 μg, 0 D 15 H 00 M): 8.61 ± 1.63 nmol/L | cGMP, mean ± SD (1000 μg, 1 D 00 H 00 M): 6.17 ± 1.05 nmol/L | cGMP, mean ± SD (1000 μg, 2 D 00 H 00 M): 5.24 ± 1.28 nmol/L | cGMP, mean ± SD (1000 μg, 3 D 00 H 00 M (trough)): 7.22 ± 2.04 nmol/L | cGMP, mean ± SD (1000 μg, 4 D 00 H 00 M (trough)): 7.77 ± 1.87 nmol/L
